Experimental data reported in patent US20230087118A1, “IMIDAZO[1,2-a][sequence] DERIVATIVES AND THEIR USE IN THE TREATMENT OF DISEASE” (priority 2019, published 2023).
Counter-ions that a name gives are not always drawn. Like-named read-outs stand apart in the source and are kept apart here.

Molecular target: T1, IRAK4 (Homo sapiens, UniProt Q9NWZ3)
T1 sequence (Q9NWZ3 1-460): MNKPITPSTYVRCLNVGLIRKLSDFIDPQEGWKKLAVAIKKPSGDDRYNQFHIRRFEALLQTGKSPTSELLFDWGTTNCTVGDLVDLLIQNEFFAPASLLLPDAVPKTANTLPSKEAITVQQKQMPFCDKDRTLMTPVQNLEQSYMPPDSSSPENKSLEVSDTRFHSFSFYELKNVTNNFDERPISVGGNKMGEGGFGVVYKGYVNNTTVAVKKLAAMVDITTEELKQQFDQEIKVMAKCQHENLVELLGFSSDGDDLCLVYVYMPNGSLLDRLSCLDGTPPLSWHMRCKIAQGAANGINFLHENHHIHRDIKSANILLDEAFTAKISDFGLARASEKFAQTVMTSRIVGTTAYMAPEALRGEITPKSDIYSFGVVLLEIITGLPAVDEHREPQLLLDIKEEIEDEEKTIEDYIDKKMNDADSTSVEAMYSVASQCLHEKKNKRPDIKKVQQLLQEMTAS
Experiment: biochemical

[1] = IRAK4 Biochemical Assay (1 mM ATP, 2 h) IC50 (μM), 1 mM ATP, 2 h, 100 pM IRAK4

| SMILES | IC50 [µM] | IC50 [1] [µM] |
| --- | --- | --- |
| CC(C)Oc1cc2nc(C34COC(C)(C3)C4)cn2cc1C(=O)Nc1cnn2cc(C3CC3)cnc12 [Example 322, N-(6-cyclopropylpyrazolo[1,5-a]pyrimidin-3-yl)-7-isopropoxy-2-(1-methyl-2-oxabicyclo[2.1.1]hexan-4-yl)imidazo[1,2-a]pyridine-6-carboxamide] | 0.0019 | – |
| CC(C)Oc1cc2nc(C34COC(C)(C3)C4)c(F)n2cc1C(=O)Nc1cccc(C(F)F)n1 [Example 324, N-(6-(difluoromethyl)pyridin-2-yl)-3-fluoro-7-isopropoxy-2-(1-methyl-2-oxabicyclo[2.1.1]hexan-4-yl)imidazo[1,2-a]pyridine-6-carboxamide trifluoroacetate] | – | 0.002 |
| CC(C)Oc1nc2nc([C@@]34CC[C@@](C)(C3)OC4)cn2cc1C(=O)Nc1cccc(C(F)F)n1 (single isomer, unassigned) [Example 576] | 0.0002 | – |
| CC(C)Oc1cc(C(=O)Nc2cccc(C(F)F)n2)cn2cc(C3CCCOC3)nc12 (stereo not drawn) [Example 394, N-(6-(difluoromethyl)pyridin-2-yl)-8-isopropoxy-2-(tetrahydro-2H-pyran-3-yl)imidazo[1,2-a]pyridine-6-carboxamide] | 0.0057 | – |
| CC(C)Oc1cc2nc(C34COC(C)(C3)C4)cn2cc1C(=O)Nc1cccc2cn(C)nc12 [Example 318, 7-Isopropoxy-N-(2-methyl-2H-indazol-7-yl)-2-(1-methyl-2-oxabicyclo[2.1.1]hexan-4-yl)imidazo[1,2-a]pyridine-6-carboxamide] | 0.001 | – |
| COc1cc2nc(C34CC(C)(CO3)C4)cn2cc1C(=O)Nc1ccccn1 [Example 4] | 0.235 | – |
| CC(C)Oc1cc2nc([C@@]34CC[C@@H](C3)OC4)cn2cc1C(=O)Nc1ccn(C)n1 (single isomer, unassigned) [Example 580] | 0.0017 | – |
| COc1cccc(NC(=O)c2cn3cc(C45COC(CF)(C4)C5)nc3cc2OC)n1 [Example 7] | – | 0.0166 |
| CC(C)Oc1cc2nc(C(F)(F)F)cn2cc1C(=O)Nc1cccc(C(F)F)n1 [Example 294, N-(6-(difluoromethyl)pyridin-2-yl)-7-isopropoxy-2-(trifluoromethyl)imidazo[1,2-a]pyridine-6-carboxamide] | 0.0056 | – |
| CCOc1nc(C(=O)Nc2cccc(C(F)F)c2)cn2cc(C34COC(C)(C3)C4)nc12 [Example 494, N-(3-(difluoromethyl)phenyl)-8-ethoxy-2-(1-methyl-2-oxabicyclo[2.1.1]hexan-4-yl)imidazo[1,2-a]pyrazine-6-carboxamide] | 0.0039 | – |
| Cc1cnc2c(NC(=O)c3cn4cc([C@]56CC[C@](C)(C5)OC6)nc4nc3OC(C)C)cnn2c1 (single isomer, unassigned) [Example 617] | 0.0006 | – |
| Cn1ccc(NC(=O)c2cn3cc(C45CCC(C)(C4)OC5)nc3cc2OC2CCCC2)n1 (stereo not drawn) [Example 632, 7-(Cyclopentyloxy)-N-(1-methyl-1H-pyrazol-3-yl)-2-(1-methyl-2-oxabicyclo[2.2.1]heptan-4-yl)imidazo[1,2-a]pyridine-6-carboxamide] | 0.0018 | – |
| CC12CC(c3cn4cc(C(=O)Nc5cccc(C(F)F)n5)nc(OC5CCC5)c4n3)(CO1)C2 [Example 345, 8-Cyclobutoxy-N-(6-(difluoromethyl)pyridin-2-yl)-2-(1-methyl-2-oxabicyclo[2.1.1]hexan-4-yl)imidazo[1,2-a]pyrazine-6-carboxamide] | 0.0022 | – |
| CC12CC(c3cn4cc(C(=O)Nc5ccn(CC6CC6)n5)c(OC5CCC5)cc4n3)(CO1)C2 [Example 525, 7-Cyclobutoxy-N-(1-(cyclopropylmethyl)-1H-pyrazol-3-yl)-2-(1-methyl-2-oxabicyclo[2.1.1]hexan-4-yl)imidazo[1,2-a]pyridine-6-carboxamide] | 0.0185 | – |
| COc1cc2nc(C3CCOCC3)cn2cc1C(=O)Nc1ccc(F)cc1OC(C)C [Example 109] | 0.114 | – |
| COc1ncccc1NC(=O)c1cn2cc(C34COC(C)(C3)C4)nc2c(OC)n1 [Example 232] | 0.0031 | – |
| CC(C)Oc1nc2nc(C34CCC(C)(CC3)CO4)cn2cc1C(=O)Nc1ccn(C)n1 [Example 566, 7-Isopropoxy-N-(1-methyl-1H-pyrazol-3-yl)-2-(4-methyl-2-oxabicyclo[2.2.2]octan-1-yl)imidazo[1,2-a]pyrimidine-6-carboxamide] | 0.0009 | – |
| CCOc1cc(C(=O)Nc2cccc(C(F)F)n2)cn2cc([C@@H]3CCCOC3)nc12 (single isomer, unassigned) [Example 54] | 0.0065 | – |
| COc1cc2nc(C3CCOCC3)cn2cc1C(=O)Nc1cccn(CC(F)(F)F)c1=O [Example 198] | 0.0759 | – |
| CC(C)Oc1cc2nc(C(C)(F)F)cn2cc1C(=O)Nc1cccc(C(F)F)n1 [Example 98, 2-(1,1-Difluoroethyl)-N-(6-(difluoromethyl)pyridin-2-yl)-7-isopropoxyimidazo[1,2-a]pyridine-6-carboxamide] | – | 0.0038 |

| SMILES | IC50 [µM] | IC50 [1] [µM] |
| --- | --- | --- |
| Cn1ccc(NC(=O)c2cn3cc(C45CCC(C)(C4)OC5)nc3cc2OC2CCC2)n1 (stereo not drawn) [Example 561, 7-Cyclobutoxy-N-(1-methyl-1H-pyrazol-3-yl)-2-(1-methyl-2-oxabicyclo[2.2.1]heptan-4-yl)imidazo[1,2-a]pyridine-6-carboxamide] | 0.0014 | – |
| CC12CC(c3cn4cc(C(=O)Nc5cnc6cccnn56)c(OC5CCCC5)nc4n3)(CO1)C2 [Example 650, 7-(cyclopentyloxy)-N-(imidazo[1,2-b]pyridazin-3-yl)-2-(1-methyl-2-oxabicyclo[2.1.1]hexan-4-yl)imidazo[1,2-a]pyrimidine-6-carboxamide] | 0.0001 | – |
| CC12CCC(c3cn4cc(C(=O)Nc5ccn(CC6CC6)n5)c(OC5CCC5)cc4n3)(CO1)C2 (stereo not drawn) [Example 534, 7-Cyclobutoxy-N-(1-(cyclopropylmethyl)-1H-pyrazol-3-yl)-2-(1-methyl-2-oxabicyclo[2.2.1]heptan-4-yl)imidazo[1,2-a]pyridine-6-carboxamide] | 0.0135 | – |
| CC(C)Oc1cc2nc(C34CCC(C3)OC4)cn2cc1C(=O)Nc1ccn(C)n1 (stereo not drawn) [Example 415, 2-(2-Oxabicyclo[2.2.1]heptan-4-yl)-7-isopropoxy-N-(1-methyl-1H-pyrazol-3-yl)imidazo[1,2-a]pyridine-6-carboxamide] | 0.0085 | – |
| COc1cc2nc(C3CCOCC3)cn2cc1C(=O)Nc1ccn(CC2CC2)n1 [Example 184] | 0.208 | – |
| Cc1cnc2c(NC(=O)c3cn4cc(C56CCC(C)(C5)OC6)nc4nc3OC(C)C)cnn2c1 (stereo not drawn) [Example 569, 7-Isopropoxy-2-(1-methyl-2-oxabicyclo[2.2.1]heptan-4-yl)-N-(6-methylpyrazolo[1,5-a]pyrimidin-3-yl)imidazo[1,2-a]pyrimidine-6-carboxamide] | 0.0024 | – |
| CC(C)Oc1nc2nc(C34CCOC(C)(C3)C4)cn2cc1C(=O)Nc1cccc(C(F)F)n1 [Example 236] | 0.0002 | – |
| COc1cccc(NC(=O)c2cn3cc([C@@]45COC[C@@H]4C5)nc3cc2OC)n1 [Example 30] | – | 0.0735 |
| CC(C)Oc1cc2nc(C34CCC(C)(CC3)OC4)cn2cc1C(=O)Nc1cnn2cccnc12 [Example 572, 7-Isopropoxy-2-(1-methyl-2-oxabicyclo[2.2.2]octan-4-yl)-N-(pyrazolo[1,5-a]pyrimidin-3-yl)imidazo[1,2-a]pyridine-6-carboxamide] | 0.0004 | – |
| CC(C)Oc1nc(C(=O)Nc2ccn(C)n2)cn2cc([C@]34CC[C@](C)(C3)OC4)nc12 (single isomer, unassigned) [Example 593] | 0.0065 | – |
| CC(C)Oc1nc2nc(C34COC(C)(C3)C4)cn2cc1C(=O)Nc1cnn(C)n1 [Example 365, 7-Isopropoxy-N-(2-methyl-2H-1,2,3-triazol-4-yl)-2-(1-methyl-2-oxabicyclo[2.1.1]hexan-4-yl)imidazo[1,2-a]pyrimidine-6-carboxamide trifluoroacetate] | – | 0.0128 |
| CCOc1nc(C(=O)Nc2cccnc2OC)cn2cc(C3CCCOC3)nc12 (stereo not drawn) [Example 224] | 0.0086 | – |
| CC12CCC(c3cn4cc(C(=O)Nc5cnn6cccnc56)c(OC5CC5)cc4n3)(CO1)C2 (stereo not drawn) [Example 554] | 0.0008 | – |
| CC(C)Oc1cc2nc(C34CCC(C)(C3)OC4)cn2cc1C(=O)Nc1nc(C(F)(F)F)cs1 (stereo not drawn) [Example 503, 7-Isopropoxy-2-(1-methyl-2-oxabicyclo[2.2.1]heptan-4-yl)-N-(4-(trifluoromethyl)thiazol-2-yl)imidazo[1,2-a]pyridine-6-carboxamide] | 0.0055 | – |
| COc1cc2nc(C3CCOCC3)cn2cc1C(=O)Nc1cnn(C)c1C1CC1 [Example 186] | 0.312 | – |
| COc1cc2nc(C3CCOCC3)cn2cc1C(=O)Nc1cccc(C)c1F [Example 110] | 0.0082 | – |
| CCn1cccc(NC(=O)c2cn3cc(C4CC4)nc3cc2OC(C)C)c1=O [Example 480, 2-Cyclopropyl-N-(1-ethyl-2-oxo-1,2-dihydropyridin-3-yl)-7-isopropoxyimidazo[1,2-a]pyridine-6-carboxamide] | 0.0075 | – |
| CC(C)Oc1nc2nc(C34COC(C)(C3)C4)cn2cc1C(=O)Nc1cnn2cc(C3CC3)cnc12 [Example 375, N-(6-cyclopropylpyrazolo[1,5-a]pyrimidin-3-yl)-7-isopropoxy-2-(1-methyl-2-oxabicyclo[2.1.1]hexan-4-yl)imidazo[1,2-a]pyrimidine-6-carboxamide] | 0.0067 | – |
| CC(C)Oc1nc2nc(C34COC(C)(C3)C4)cn2cc1C(=O)Nc1cccc(C(C)(F)F)n1 [Example 356, N-(6-(1,1-difluoroethyl)pyridin-2-yl)-7-isopropoxy-2-(1-methyl-2-oxabicyclo[2.1.1]hexan-4-yl)imidazo[1,2-a]pyrimidine-6-carboxamide trifluoroacetate] | – | 0.0011 |
